According to patent publication US8137705B2 (priority 2005, dated 2012):
“Also recorded” adds a separate entry of the source.

Tested on: E. coli O157:H7
Assay: E. coli O157:H7 counts in water with rumen content treated with ozone
Format: cell-based
Settings: for E. coli O157:H7 (log10 cfu/ml) at min: 0: 0 min; for E. coli O157:H7 (log10 cfu/ml) at min: 1: 1 min; for E. coli O157:H7 (log10 cfu/ml) at min: 2: 2 min; for E. coli O157:H7 (log10 cfu/ml) at min: 5: 5 min; for E. coli O157:H7 (log10 cfu/ml) at min: 10: 10 min; for E. coli O157:H7 (log10 cfu/ml) at min: 20: 20 min
Description: Ozone was produced by an laboratory scale ozone generator (Model H-50, Hess Machine International, Ephrata, Pa.) equipped with an oxygen concentrator (Model AS-12, AirSep, Buffalo, N.Y.) and ozone concentrations (ppm) were measured by the indigo calorimeter method. Ozonated (22-24 ppm at 5° C.) water was mixed with rumen content at ratios of 100:1, 50:1, 25:1, 10:1, and 5:1. MilliQ water (Milli-Q Synthesis A10, Millipore Corp. Brillerica, Mass.) was used as the control. One ml of a mixture of 5 strains of E. coli O157:H7 (10^8 cfu) was mixed with 199 ml of the ozonated water with rumen content at 5° C. and sampled from 0 to 20 min. At each sampling time, 1 ml was removed, and immediately mixed with 9 ml of neutralizing buffer and serially (1:10) diluted and a volume of 0.1 ml from each dilution tube was plated on SMA-NA and TSA-NA plates in duplicate. Plates were incubated at 37° C. for 24 h. Presumptive E. coli O157:H7 colonies were counted and confirmed according to the method described above. All studies were done in duplicate.

[1] = 22-24 ppm ozone, Ozonated water only (no rumen content), 5° C.
[2] = 22-24 ppm ozone, water:rumen content 20:1, 5° C.
[3] = 22-24 ppm ozone, water:rumen content 50:1, 5° C.
[4] = 22-24 ppm ozone, water:rumen content 100:1, 5° C.
[5] = 22-24 ppm ozone, water:rumen content 200:1, 5° C.

## O=[O+][O-] [ozone]
22-24 ppm ozone, 5° C., water with no rumen content, direct plating
  killing of 10^6-10^7 E. coli O157:H7/ml: undetectable level
22-24 ppm ozone, 50 parts water to 1 part rumen content
  E. coli O157:H7 inactivation: Little to no E. coli O157:H7 inactivation
22-24 ppm ozone, 100 parts water to 1 part rumen content or more
  effect of rumen content on antimicrobial activity of ozone: neutralized; also recorded: greatly decreased the antimicrobial activity
[1]
  E. coli O157:H7 (log10 cfu/ml) at min: 0: <1.7 log10 cfu/ml
  E. coli O157:H7 (log10 cfu/ml) at min: 1: <1.7 log10 cfu/ml
  E. coli O157:H7 (log10 cfu/ml) at min: 2: <1.7 log10 cfu/ml
  E. coli O157:H7 (log10 cfu/ml) at min: 5: <1.7 log10 cfu/ml
  E. coli O157:H7 (log10 cfu/ml) at min: 10: <1.7 log10 cfu/ml
  E. coli O157:H7 (log10 cfu/ml) at min: 20: <1.7 log10 cfu/ml
[2]
  E. coli O157:H7 (log10 cfu/ml) at min: 0: 5.6 log10 cfu/ml
  E. coli O157:H7 (log10 cfu/ml) at min: 1: 5.2 log10 cfu/ml
  E. coli O157:H7 (log10 cfu/ml) at min: 2: 5.1 log10 cfu/ml
  E. coli O157:H7 (log10 cfu/ml) at min: 5: 5.1 log10 cfu/ml
  E. coli O157:H7 (log10 cfu/ml) at min: 10: 5.4 log10 cfu/ml
  E. coli O157:H7 (log10 cfu/ml) at min: 20: 5.2 log10 cfu/ml
[3]
  E. coli O157:H7 (log10 cfu/ml) at min: 0: 6.2 log10 cfu/ml
  E. coli O157:H7 (log10 cfu/ml) at min: 1: 6.2 log10 cfu/ml
  E. coli O157:H7 (log10 cfu/ml) at min: 2: 6.4 log10 cfu/ml
  E. coli O157:H7 (log10 cfu/ml) at min: 5: 6.4 log10 cfu/ml
  E. coli O157:H7 (log10 cfu/ml) at min: 10: 6.5 log10 cfu/ml
  E. coli O157:H7 (log10 cfu/ml) at min: 20: 6.3 log10 cfu/ml
[4]
  E. coli O157:H7 (log10 cfu/ml) at min: 0: 5.2 log10 cfu/ml
  E. coli O157:H7 (log10 cfu/ml) at min: 1: 5.4 log10 cfu/ml
  E. coli O157:H7 (log10 cfu/ml) at min: 2: 5.5 log10 cfu/ml
  E. coli O157:H7 (log10 cfu/ml) at min: 5: 5.2 log10 cfu/ml
  E. coli O157:H7 (log10 cfu/ml) at min: 10: 4.5 log10 cfu/ml
  E. coli O157:H7 (log10 cfu/ml) at min: 20: 4.8 log10 cfu/ml
[5]
  E. coli O157:H7 (log10 cfu/ml) at min: 0: <1.7 log10 cfu/ml
  E. coli O157:H7 (log10 cfu/ml) at min: 1: <1.7 log10 cfu/ml
  E. coli O157:H7 (log10 cfu/ml) at min: 2: <1.7 log10 cfu/ml
  E. coli O157:H7 (log10 cfu/ml) at min: 5: <1.7 log10 cfu/ml
  E. coli O157:H7 (log10 cfu/ml) at min: 10: <1.7 log10 cfu/ml
  E. coli O157:H7 (log10 cfu/ml) at min: 20: <1.7 log10 cfu/ml
Ozone 22-24 ppm at 5° C. or 8-12 ppm at 21° C., rumen content at ratios of 50:1 and higher
  effect on killing E. coli O157:H7: minimal effect
